Experimental data from US8853196B2, “Aminochromane, aminothiochromane and amino-1,2,3,4-tetrahydroquinoline derivatives, pharmaceutical compositions containing them, and their use in therapy” (AbbVie Deutschland GmbH & Co. KG, priority 2011, dated 2014).

Tests used:
[1] = molecular target: T1, human GlyT1c transporter (Homo sapiens, UniProt P48067); experiment: Radioligand binding assay using recombinant CHO cell membranes expressing human GlyT1; conditions: values given as upper bounds, read-out: radioligand binding Kiapp
T1 construct: expressed in transfected cells; host or cells: CHO cells (recombinant; membranes)
T1 sequence (P48067 1-706): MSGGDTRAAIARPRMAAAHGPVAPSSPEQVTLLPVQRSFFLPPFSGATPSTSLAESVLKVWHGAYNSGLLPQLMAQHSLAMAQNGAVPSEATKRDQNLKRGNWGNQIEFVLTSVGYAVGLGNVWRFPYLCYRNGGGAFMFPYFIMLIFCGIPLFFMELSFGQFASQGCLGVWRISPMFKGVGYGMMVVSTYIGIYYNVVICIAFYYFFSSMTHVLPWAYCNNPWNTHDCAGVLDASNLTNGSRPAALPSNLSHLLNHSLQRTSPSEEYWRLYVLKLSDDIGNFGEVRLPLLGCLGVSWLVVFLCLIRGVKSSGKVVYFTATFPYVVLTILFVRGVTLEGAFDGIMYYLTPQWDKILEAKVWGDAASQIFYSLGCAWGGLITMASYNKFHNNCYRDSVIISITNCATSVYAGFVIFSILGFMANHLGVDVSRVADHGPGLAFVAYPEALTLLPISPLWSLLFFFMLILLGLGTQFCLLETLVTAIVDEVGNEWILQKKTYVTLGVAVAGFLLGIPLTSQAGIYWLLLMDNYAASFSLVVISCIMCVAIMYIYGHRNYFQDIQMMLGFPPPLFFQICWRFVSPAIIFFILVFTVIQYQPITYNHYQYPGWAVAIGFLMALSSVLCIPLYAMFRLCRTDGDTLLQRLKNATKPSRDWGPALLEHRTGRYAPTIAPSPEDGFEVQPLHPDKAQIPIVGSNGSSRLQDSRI
Protocol: 2. Radioligand Binding Assays Using Recombinant CHO Cell Membranes Expressing Human GlyT1:
Radioligand binding to human GlyT1c transporter-expressing membranes was determined as described in Mezler et al., Molecular Pharmacology 74:1705-1715, 2008.

[2] = molecular target: T2, MDR1 (P-gp) (Homo sapiens, UniProt P08183); experiment: Efflux ratio by bidirectional transport in MDR1-MDCK cells; format: in vitro ADME; conditions: dog; MDR1-MDCK monolayers, 1 μM compound, HBSS pH 7.4, 1 h at 37 C; calculated from permeability coefficients
T2 construct: expressed in transfected cells; host or cells: Madin-Darby Canine Kidney Type II cells (MDR1-MDCK)
Protocol: 3. Determination of Efflux Ratio Using Madin-Darby Canine Kidney Type II Cells
Bidirectional transport experiments were performed on Madin-Darby Canine Kidney Type II cells over-expressing multidrug resistance protein 1 (MDR1-MDCK) to evaluate the compounds as potential P-gp substrates.
Compounds were added at 1 μM in HBSS-pH 7.4 (hanks balanced salt solution) to either the apical or basolateral side of MDR1-MDCK cell monolayers grown on Millicell 96-Cell polycarbonate filters. Samples were collected from both apical and basolateral sides at time 0 and after 1 h incubation at 37 C, compounds concentrations were measured by HPLC/MS/MS and permeability coefficients were then determined in both transport directions. The efflux ratio was subsequently calculated from the permeability coefficient.

T2 sequence (P08183 whole entry, species assumed): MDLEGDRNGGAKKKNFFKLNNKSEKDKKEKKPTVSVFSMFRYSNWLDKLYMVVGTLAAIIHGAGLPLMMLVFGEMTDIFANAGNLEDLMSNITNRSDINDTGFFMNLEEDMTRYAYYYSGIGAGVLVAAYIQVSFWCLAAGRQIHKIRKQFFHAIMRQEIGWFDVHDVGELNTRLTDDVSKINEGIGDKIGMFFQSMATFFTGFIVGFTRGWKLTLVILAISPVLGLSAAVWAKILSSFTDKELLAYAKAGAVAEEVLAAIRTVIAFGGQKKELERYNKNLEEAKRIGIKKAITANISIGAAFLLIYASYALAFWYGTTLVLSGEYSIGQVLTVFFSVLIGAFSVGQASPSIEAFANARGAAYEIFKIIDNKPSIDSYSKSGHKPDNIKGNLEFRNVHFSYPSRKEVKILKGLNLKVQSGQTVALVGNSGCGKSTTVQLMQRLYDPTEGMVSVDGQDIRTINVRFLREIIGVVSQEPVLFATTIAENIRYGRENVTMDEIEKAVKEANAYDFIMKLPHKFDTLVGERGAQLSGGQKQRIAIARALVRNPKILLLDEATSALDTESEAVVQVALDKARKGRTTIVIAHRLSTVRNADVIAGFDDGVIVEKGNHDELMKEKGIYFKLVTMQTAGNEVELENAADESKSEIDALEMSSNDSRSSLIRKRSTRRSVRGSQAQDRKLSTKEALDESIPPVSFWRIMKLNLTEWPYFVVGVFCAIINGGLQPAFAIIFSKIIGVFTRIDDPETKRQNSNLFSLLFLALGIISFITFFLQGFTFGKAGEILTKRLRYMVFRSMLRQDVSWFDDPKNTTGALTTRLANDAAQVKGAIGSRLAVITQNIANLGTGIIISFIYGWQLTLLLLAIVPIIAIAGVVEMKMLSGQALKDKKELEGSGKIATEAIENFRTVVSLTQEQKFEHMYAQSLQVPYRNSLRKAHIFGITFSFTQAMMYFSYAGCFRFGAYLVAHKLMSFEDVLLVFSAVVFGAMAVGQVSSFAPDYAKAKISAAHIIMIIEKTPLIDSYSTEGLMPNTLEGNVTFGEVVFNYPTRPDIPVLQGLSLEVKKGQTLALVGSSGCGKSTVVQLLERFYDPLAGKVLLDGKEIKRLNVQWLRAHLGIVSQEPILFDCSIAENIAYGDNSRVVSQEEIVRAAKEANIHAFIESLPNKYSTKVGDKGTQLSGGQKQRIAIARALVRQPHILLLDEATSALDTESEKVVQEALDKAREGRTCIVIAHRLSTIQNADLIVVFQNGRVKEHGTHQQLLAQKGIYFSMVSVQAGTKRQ

Ki [1] [nM] | efflux ratio at 1 h, 1 μM [2] | SMILES
≤ 100 | 1.4 | CN[C@@H]1COc2ccc(CNS(=O)(=O)C3CCC3)cc2[C@@H]1Cc1ccccc1 (relative stereo) [Example 25, cis-Cyclobutanesulfonic acid (4-benzyl-3-methylamino-chroman-6-ylmethyl)-amide]
≤ 100 | – | Cc1csc(S(=O)(=O)NCc2ccc3c(c2)C(Cc2ccccc2)C(N)CO3)c1 (centres unmarked) [Example 56, 4-Methyl-thiophene-2-sulfonic acid (3-amino-4-benzyl-chroman-6-ylmethyl)-amide 2,2,2-trifluoroacetate]
≤ 1000 | – | CCn1cc(S(=O)(=O)NCc2ccc3c(c2)C(Cc2ccccc2)C(N)CO3)cn1 (centres unmarked) [Example 57, 1-Ethyl-1H-pyrazole-4-sulfonic acid (3-amino-4-benzyl-chroman-6-ylmethyl)-amide 2,2,2-trifluoroacetate]
≤ 1000 | – | Cc1ncc(S(=O)(=O)NCc2ccc3c(c2)C(Cc2ccccc2)C(N)CO3)n1C (centres unmarked) [Example 58, 2,3-Dimethyl-3H-imidazole-4-sulfonic acid (3-amino-4-benzyl-chroman-6-ylmethyl)-amide 2,2,2-trifluoroacetate]
